Patent US20240091172A1, “DRUG FOR ANTAGONIZING REPLICATION OF PORCINE REPRODUCTIVE AND RESPIRATORY SYNDROME VIRUS AND APPLICATION THEREOF” (NANJING AGRICULTURAL UNIVERSITY, priority 2019, published 2024)

Columns and labels:
PRRSV [1] = assay: Natural product drug library screening, PRRSV infection of Marc-145 cells; type: cell-based, porcine reproductive and respiratory syndrome virus; conditions: for inhibitory effects on PRRSV: second round hits
Procedure: Marc-145 cells were treated with 10 μM of natural products and then infected with PRRSV. In the first round of screening, 24 compounds (6.21%) had no obvious cytotoxicity to Marc-145 cells and could reduce PRRSV-induced CPE by 50% (FIG. 1A).

PRRSV [2] = assay: PRRSV replication in Marc-145 cells (TCID50, ORF7 mRNA, CPE/IFA, Western blot); type: cell-based, porcine reproductive and respiratory syndrome virus
Procedure: (§1) Marc-145 cells were cultured in a 96-well plate. When the cell confluence reached 70%, a nutrient solution was pipetted and discarded, and the cell surface was washed 3 times with PBS. Ten-fold serially diluted PRRSV was added to the cells and the cells were incubated at 37° C. for 1 h. The medium was replaced with fresh 2% FBS-DMEM. Virus titers were determined 5 days post-inoculation (dpi) using end-point dilution analysis. The 50% cell infectious dose (TCID50) was calculated by the Reed-Muench method.
(§2) Cellular RNAs were extracted following the operation instructions of an OMEGA RNA virus extraction kit. […] Relative fluorescence quantification was performed after reverse transcription, and the primer sequences used were as follows:
(§3) According to the method of 2-ΔΔCt, the relative content of mRNA of each gene in a sample was calculated with a CT value.
(§4) Further, the inhibitory efficiency of Xn on PRRSV in Marc145 cells was detected by indirect immunofluorescence. […] To further determine the dose range of Xn with the anti-PRRSV activity, Marc-145 cells were treated with 5 μM, 10 μM, and 15 μM Xn respectively, and then infected with PRRSV (0.01 MOI).

PRRSV [3] = assay: IC50 against PRRSV in Marc145 cells by indirect immunofluorescence; type: cell-based; conditions: Porcine reproductive and respiratory syndrome virus
Procedure: (§5) Xn of different concentrations was added to a PAMs medium (1-30 μM), and a DMSO negative control group was set up. Cells were inoculated with PRRSV (0.01 MOI) and incubated at 37° C. for 30 h, and the cell supernatant was pipetted and discarded. The cells were fixed with 4% (volume ratio) paraformaldehyde for 15 min, permeabilized with 0.1% (volume ratio) Triton X-100 for 30 min, and washed 3 times with PBS for 3 min each time. A PRRSV N protein monoclonal antibody (2H7) at a dilution of 1:1000 was added, and the cells were incubated at 37° C. for 1 h, and washed 3 times with PBST for 3 min each time. Alexa Fluor 594 goat anti-mouse IgG at a dilution of 1:1000 was added, and the cells were incubated at 37° C. for 45 min. The nuclei were stained with DAPI for 10 min at room temperature. Three photos were recorded randomly with a Nikon A1 confocal microscope. The fluorescence intensity was measured by ImageJ software. Finally, the 50% inhibitory concentration (IC50) of Xn against PRRSV was calculated by GraphPad Prism 7.0 software, and the results were recorded.
as §4

[4] = test system: IL-1β, IL-6, IL-8 and TNF-α mRNA; assay: PRRSV- or LPS-induced inflammatory reaction in Marc-145 cells (qRT-PCR); type: cell-based
Procedure: as §2, §3
(§6) Marc-145 cells and PAM cells were inoculated with 0.1 MOI PRRSV and incubated at 37° C. for 1 h. The nutrient solution was replaced with DMEM-2% FBS containing Xn (or DMSO), and 24 h post infection, cellular RNAs were extracted. A positive control group was set up: Marc-145 cells and PAMs were treated with 10 μg/mL LPS (or DMEM) for 1 h; the cell surface was washed 3 times with PBS; 2% FBS-DMEM containing Xn (or DMSO) was added; and after 6 h, the cells were collected, RNAs were extracted, and the mRNA levels of IL-1β, IL-6, IL-8 and TNF-α were detected by qRT-PCR. The results are shown in FIG. 6 (Marc-145) and FIG. 7 (PAM cells).

PRRSV [5] = assay: IC50 against PRRSV in PAMs by immunofluorescence; type: cell-based; conditions: Porcine reproductive and respiratory syndrome virus; PAMs cells
Procedure: as §5

PRRSV [6] = assay: PRRSV replication in PAM cells (N protein, ORF7 mRNA, titer, different strains); type: cell-based, porcine reproductive and respiratory syndrome virus
Procedure: as §1, §2
The results are shown in FIGS. 4A-D. In PAM, Xn could inhibit the replication of different genetic subtypes of PRRSV strains in the viral ORF7 gene and protein levels, and reduce the viral infection titer.

[7] = Cytotoxicity (CC50) in PAMs cells; type: cell-based, porcine; conditions: pig
Marc-145 cells = assay: Cytotoxicity to Marc-145 cells (CCK8, CC50); type: cell-based
Procedure: (§7) Cell viability was detected with the enhanced CCK8 kit. The concentration (CC50) at which Xn was cytotoxic to 50% of the cells was calculated using GraphPad Prism 7.0 software. DMSO was used as a negative control.
as §4

[8] = Cytotoxicity to Marc-145 cells (CCK8, CC50); type: cell-based; conditions: African green monkey, Marc-145 cells; Marc145 cells, CCK8 cytotoxicity assay
Procedure: as §7, §4

PRRSV [9] = assay: Stage experiment of drug (pre-, co-, post-treatment) in PAMs; type: cell-based, porcine reproductive and respiratory syndrome virus; conditions: 24 hpi
Procedure: Xn treatment time and PRRSV infection time are shown on the timeline in FIG. 5A. PAMs were inoculated into a 24-well plate, and after complete sedimentation, the time was set as −1 h. 10 μM Xn was added to a pretreatment group (Pre) at −1 h; and at 0 h; cells were inoculated 0.1 moi PRRSV and incubated at 37° C. for 1 h; the virus-containing cell culture was replaced with 2% FBS-DMEM; and the cells were cultured at 37° C. for 24 h. Xn was added to the cells in a co-treatment group (Co) at 0 h; the cells were inoculated with 0.1 moi PRRSV, and incubated at 37° C. for 1 h; the virus-containing cell culture was replaced with 2% FBS-DMEM; and the cells were cultured at 37° C. for 24 h. A post-treatment group (Post) was inoculated with 0.1 moi PRRSV at 0 h; the culture was discarded at 1 h and replaced with 2% FBS-DMEM containing 10 μM Xn; and the cells were cultured at 37° C. for 24 h.
PAMs were treated with Xn before, during and after PRRSV infection (FIG. 5A). Cell samples were collected at 24 hpi for detection of PRRSV N protein and PRRSV ORF7 mRNA by Western blot and qRT-PCR respectively, and the cell supernatant was collected for virus titer determination.

[10] = test system: IL-1β, IL-6, IL-8 and TNF-α mRNA; assay: PRRSV- or LPS-induced inflammatory reaction in PAM cells (qRT-PCR); type: cell-based, porcine
Procedure: as §2, §3, §6

PRRSV [11] = assay: Anti-PRRSV activity of xanthohumol derivatives on Marc-145; type: cell-based, porcine reproductive and respiratory syndrome virus
PRRSV BB0907 strain = assay: Piglet treatment experiment after PRRSV infection; type: in vivo, piglets; conditions: for virus level in the serum vs virus-infected positive control group: 4-14 dpi
[12] = Marc-145, 5, 10, 15 μM Xn, 0.01 MOI, 24, 36, 48 hpi
[13] = PAM cells, dose-dependent manner

## COc1cc(O)c(CC=C(C)C)c(O)c1C(=O)/C=C/c1ccc(O)cc1 [Xn, xanthohumol]
PRRSV [1]
  IC50, comparison among the 5 screened compounds: lowest
  selectivity index, comparison among the 5 screened compounds: highest
  inhibitory effects on PRRSV: dose-dependent inhibitory effects
PRRSV [2]; Marc-145
  replication of the three PRRSV strains (Western blot): effectively reduce
PRRSV [2]; Marc-145, 48 hpi
  number of infected cells (CPE and IFA) vs negative control group: significantly less
PRRSV [2]; [12]
  ORF7 mRNA level: dose-dependent decrease
  viral titers (TCID50 of PRRSV): dose-dependent decrease
PRRSV [3]
  IC50: 2.37 µM
[4]; Marc-145, 10 μg/mL LPS, 6 h, dose-dependent
  mRNA expressions of IL-1β, IL-6, IL-8 and TNF-α induced by LPS: effectively reduce
[4]; Marc-145, 0.1 MOI PRRSV, 24 h post infection, dose-dependent
  mRNA expressions of IL-1β, IL-6, IL-8 and TNF-α induced by PRRSV: effectively reduce
[4]; Marc-145, Xn alone
  intracellular inflammatory factors, Xn control treatment: did not cause changes
PRRSV [5]
  IC50: 7.05 µM
PRRSV [6]; PAM
  replication of different genetic subtypes of PRRSV strains (ORF7 gene and protein levels): inhibit
PRRSV [6]; [13]
  level of PRRSV N protein: decreased
  level of viral mRNA: decreased
PRRSV [6]; PAM, different genetic subtypes of PRRSV strains
  viral infection titer: reduce
[7]
  CC50: 42.6 µM
Marc-145 cells; Marc-145 cells
  CC50, comparison among the 5 screened compounds: highest
[8]
  CC50 at 48 h: 62.5 µM
PRRSV [9]; 10 μM Xn co-treatment (Co)
  level of PRRSV replication (N protein, ORF7 mRNA, virus titer): inhibited the virus to a lower degree
PRRSV [9]; 10 μM Xn post virus infection (Post)
  level of PRRSV replication (N protein, ORF7 mRNA, virus titer): significantly reduced
PRRSV [9]; 10 μM Xn pretreatment (Pre)
  level of PRRSV replication (N protein, ORF7 mRNA, virus titer): inhibited the virus to a lower degree
[10]; 10 μg/mL LPS, 6 h, dose-dependent
  mRNA expressions of IL-1β, IL-6, IL-8 and TNF-α induced by LPS: effectively reduce
[10]; 0.1 MOI PRRSV, 24 h post infection, dose-dependent
  mRNA expressions of IL-1β, IL-6, IL-8 and TNF-α induced by PRRSV: effectively reduce
[10]; Xn alone
  intracellular inflammatory factors, Xn control treatment: did not cause changes

## COc1cc(OC)c(C(=O)/C=C/c2ccc(O)cc2)c(OC)c1 [Xn-2]
PRRSV [11]; 0-50 uM
  anti-PRRSV activity on Marc-145: inhibitory effects

## COc1cc(O)c(C(=O)/C=C/c2ccc(O)cc2)c(OC)c1 [Xn-4]
PRRSV BB0907 strain; 10 mg/kg intramuscular, 5 per group, death at 10 dpi
  pigs died: 1
PRRSV BB0907 strain; 10 mg/kg intramuscular, 14 days post infection
  rectal temperature of the piglets: increased
PRRSV BB0907 strain; 10 mg/kg, P<0.05
  virus level in the serum vs virus-infected positive control group: significantly lower
PRRSV BB0907 strain; 10 mg/kg, 14 dpi, P<0.05
  lung pathological change scores vs positive control group: significantly lower
PRRSV BB0907 strain; 20 mg/kg intramuscular, days 0-14
  clinical fever and clinical symptoms: no clinical fever or obvious clinical symptoms
PRRSV BB0907 strain; 20 mg/kg intramuscular, during the experiment
  survival: all were healthy and alive
PRRSV BB0907 strain; 20 mg/kg, 4-10 dpi
  copy number of the PRRSV genome in the nasal swabs vs positive control group: significantly lower
PRRSV BB0907 strain; 20 mg/kg, P<0.05
  virus level in the serum vs virus-infected positive control group: significantly lower
PRRSV BB0907 strain; 20 mg/kg, 14 dpi, P<0.05
  PRRSV viral load in the lungs vs control group: significantly lower
  lung pathological change scores vs positive control group: significantly lower
PRRSV BB0907 strain; 5, 10, 20 mg/kg, qRT-PCR
  inflammatory factors IL-1β, IL-6, IL-8 and TNF-α mRNA in the lung tissue: decreased in a dose-dependent manner
PRRSV [11]; 0-50 uM
  anti-PRRSV activity on Marc-145: inhibitory effects
PRRSV [11]; 0-50 uM, Marc-145
  anti-PRRSV effect, ranking among the three compounds: best effect
PRRSV [11]; Marc-145
  concentration with an obvious antiviral effect: 15 µM

## COc1cc(O)cc(O)c1C(=O)/C=C/c1cccc([N+](=O)[O-])c1 [Xn-5]
PRRSV [11]; low concentrations
  antiviral ability: did not have antiviral ability
Marc-145 cells; low concentrations
  cytotoxicity: highly cytotoxic

## Oc1c(Cl)cc(Cl)c2cccnc12 [chloroxine, reference compound]
PRRSV [1]
  inhibitory effects on PRRSV: dose-dependent inhibitory effects

## COc1cc(/C=C/C(=O)CC(=O)/C=C/c2ccc(O)c(OC)c2)ccc1O [curcumin]
PRRSV [1]
  inhibitory effects on PRRSV: dose-dependent inhibitory effects
